From US8999983B2, “Modulators of Hec1 activity and methods therefor” (Taivex Therapeutics Corporation, priority 2011, dated 2015) come the findings set out here.

The subject of series [1] is MDA-MB-468. Nature of the series: Antiproliferation assay (MTS), MDA-MB-468 cells. It is filed as cell-based. As to conditions: Homo sapiens, MDA-MB-468, 96 h, Table 1, read-out: Antiproliferative IC50 MDA-MB-468. In a few lines:
(§1)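 Cells seeded after overnight attachment were treated in triplicate for 96 h at 37 °C, 5% CO2, final DMSO below 1%. Viability read by MTS absorbance; concentration-response curves fitted by linear regression against DMSO controls.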

Series [2] deals with Hela. Nature of the series: Antiproliferation assay (MTS), HeLa cells. The format is cell-based. As to conditions: Homo sapiens, 96 h, Table 1, read-out: Antiproliferative IC50 Hela. In a few lines: as §1
In series [3] the test system is Caco-2 cell monolayers. As to the kind of experiment: Caco-2 cell permeability. As to conditions: 2 hour. The format is in vitro ADME. On the procedure:
Here, Caco-2 cell line (cat. HTB-37TM) was purchased from the ATCC. Cells were cultivated in T-75 flasks in a cell culture incubator set at 37° C., 5% CO2, 95% relative humidity. Cells were allowed to grow to reach 80-90% confluence before seeding. […] The cells were grown in culture medium consisting of Dulbecco's modified Eagle's medium supplemented with 10% fetal bovine serum, 100 U/mL penicillin and 100 μg/mL streptomycin. The culture medium was replaced every 2 days and the cells were maintained at 37° C., 95% relative humidity and 5% CO2.
For a quality integrity control of the monolayers of seeded cells, the Lucifer yellow (LY) transport experiment was performed to evaluate monolayer integrity. As for a quality control of each filter, the transepithelial electrical resistance (TEER) was measured before the start of and at the end of transport experiments. Physiologically and morphologically well developed Caco-2 cell monolayers with TEER values greater than 400 Ωcm^2 were used for the studies.
The solution volumes in apical and basolateral chambers were set to 0.4 and 0.6 ml respectively. Samples were taken from both the apical and basolateral compartment at the end of the 2 hour incubation at 37° C. […] The excitation and emission wavelengths were 490 nm and 530 nm, respectively.
For orientation: Passage across Caco-2 layers is used to estimate intestinal permeability.

The target of series [4] is T1, Hec1-Nek2 interaction (Homo sapiens, UniProt O14777).
T1 construct: endogenous in cells; host or cells: K562
T1 sequence (O14777 1-642): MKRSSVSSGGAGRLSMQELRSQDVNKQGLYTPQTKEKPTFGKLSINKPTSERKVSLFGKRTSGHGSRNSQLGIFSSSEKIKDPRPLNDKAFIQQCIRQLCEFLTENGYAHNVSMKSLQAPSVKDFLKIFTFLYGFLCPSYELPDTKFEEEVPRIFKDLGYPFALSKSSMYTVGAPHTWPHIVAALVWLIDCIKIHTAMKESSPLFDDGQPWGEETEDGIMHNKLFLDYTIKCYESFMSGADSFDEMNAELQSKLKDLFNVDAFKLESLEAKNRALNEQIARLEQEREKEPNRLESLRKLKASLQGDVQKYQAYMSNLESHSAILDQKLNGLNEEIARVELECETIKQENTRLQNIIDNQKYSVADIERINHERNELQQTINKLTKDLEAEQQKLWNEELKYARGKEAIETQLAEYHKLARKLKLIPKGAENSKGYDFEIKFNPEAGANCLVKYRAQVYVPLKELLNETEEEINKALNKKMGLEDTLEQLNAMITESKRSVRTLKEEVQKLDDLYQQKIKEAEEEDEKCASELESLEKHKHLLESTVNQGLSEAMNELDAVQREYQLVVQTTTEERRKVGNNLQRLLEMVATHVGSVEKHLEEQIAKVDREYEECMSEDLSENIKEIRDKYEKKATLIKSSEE
Nature of the series: Co-immunoprecipitation analysis of Hec1-Nek2 interaction in K562 cells. It is filed as cell-based. The settings on record: K562 cells treated 8 or 16 hours. On the procedure: Co-Immunoprecipitation Analysis: Co-immunoprecipitation (Co-IP)/Western blotting assays were performed to assess the effects of Hec1 inhibitory compounds on Hec1-Nek2 interaction. K562 cells were treated with Hec1 inhibitory compounds as indicated. After harvesting and washing once with cold PBS, cells were lysed on ice in lysis buffer (50 mM Tris (pH 7.5), 250 mM NaCl, 5 mM EDTA (pH 8.0), 0.1% NP-40, 1 mM PMSF, 50 mM NaF, and protease inhibitor cocktail (P/N P8340 Sigma Aldrich, St. Louis Mo. USA) for 30 min. Lysates were then centrifuged at 12,000 rpm at 4° C. for 20 minutes. Input supernatant was incubated in the presence of anti Nek2 antibody (rabbit anti-Nek2, Rockland Immunochemicals, Gilbertsville, Pa. 19525 USA) or IgG control antibody for 2 h at 4° C., followed by the addition protein G coupled to agarose beads (GE Healthcare, Anaheim Calif. 92805 USA). After mixing for 1 h at 4° C., the agarose beads were centrifuged at 12,000 rpm at 4° C. for 20 seconds. The beads were then washed 5 times with cold Co-IP buffer, boiled in SDS-PAGE sample buffer followed by SDS-PAGE. The presence of Hec1 and Nek2 was detected by Western blotting with mouse monoclonal antibodies directed to Hec1 (GeneTex, Inc., Irvine Calif. 92606 USA) and Nek2 (BD Biosciences, San Jose Calif. 95131 USA). […]

What is called IC50 is the midpoint of a concentration-inhibition curve. For `COCCOc1cnc(Sc2cc(C)c(-c3csc(NC(=O)c4ccncc4)n3)c(C)c2)cn1` [Compound 27, N-(4-{4-(5-(2-methoxyethoxy)pyrazin-2-ylthio)-2,6-dimethylphenyl}thiazol-2-yl)isonicotinamide], the results for the IC50 in series [1] and in series [2] were 19.1 nM and 21.1 nM, respectively. Moreover, the Caco-2 permeability entry in series [3] (10 μM, both directions) is “moderate Caco-2 permeability”. Moreover, the active efflux result in series [3] (Caco-2, 10 μM) is recorded as “no indication of significant active efflux”. Moreover, in series [4], the “Hec1/Nek2 interaction (Hec1 in Nek2 immunoprecipitates)” value is on record as “significantly disrupted Hec1/Nek2 interaction”.
